# Results filed as inconclusive are left out. Calls of active or inactive are those of the source.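 The calls were made as follows: active = fitted curve reaches 40% activation at or below the top valid dose, and every replicate test is called active; inconclusive = replicate tests disagree, some active and some inactive; inactive = all replicate tests inactive, including activity in the wrong direction.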
# Target: Endoplasmic reticulum aminopeptidase 1 (Homo sapiens) (UniProt Q9NZ08)
# Test: ERAP1 aminopeptidase activity change, dose response, biochemical, fluorescence, cherry-pick (AID 743317)
# Conditions: ERAP1 enzyme, Leu-AMC fluorescence, 60 min
# Sequence of Endoplasmic reticulum aminopeptidase 1 (Homo sapiens) (Q9NZ08 whole entry, looked up): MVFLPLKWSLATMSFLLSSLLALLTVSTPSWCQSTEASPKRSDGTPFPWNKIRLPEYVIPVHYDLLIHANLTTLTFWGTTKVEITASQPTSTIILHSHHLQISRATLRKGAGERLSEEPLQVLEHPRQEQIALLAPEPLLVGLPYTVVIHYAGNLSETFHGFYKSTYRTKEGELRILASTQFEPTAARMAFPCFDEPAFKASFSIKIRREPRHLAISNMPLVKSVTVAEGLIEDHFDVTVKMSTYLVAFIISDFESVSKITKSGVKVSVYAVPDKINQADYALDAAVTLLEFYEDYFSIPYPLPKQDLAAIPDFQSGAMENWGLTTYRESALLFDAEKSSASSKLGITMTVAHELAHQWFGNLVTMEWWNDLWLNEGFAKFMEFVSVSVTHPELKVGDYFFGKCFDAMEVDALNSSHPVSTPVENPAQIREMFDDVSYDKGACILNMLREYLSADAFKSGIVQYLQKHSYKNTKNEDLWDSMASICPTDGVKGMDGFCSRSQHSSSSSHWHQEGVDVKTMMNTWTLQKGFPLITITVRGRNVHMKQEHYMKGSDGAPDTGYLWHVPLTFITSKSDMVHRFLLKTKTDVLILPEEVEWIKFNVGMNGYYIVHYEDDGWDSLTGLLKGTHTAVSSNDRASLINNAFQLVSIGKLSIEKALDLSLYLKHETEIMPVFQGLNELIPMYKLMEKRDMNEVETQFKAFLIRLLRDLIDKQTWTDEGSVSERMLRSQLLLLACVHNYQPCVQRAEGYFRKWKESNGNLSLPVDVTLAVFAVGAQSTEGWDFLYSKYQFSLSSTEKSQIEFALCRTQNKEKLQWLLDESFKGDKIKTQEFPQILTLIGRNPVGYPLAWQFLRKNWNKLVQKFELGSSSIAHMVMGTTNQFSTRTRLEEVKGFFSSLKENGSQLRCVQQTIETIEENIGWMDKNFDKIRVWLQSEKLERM
row,Compound,AC40 [nM]
1,CO[C@@H]1CN(C)C(=O)c2ccc(NC(=O)Nc3cccc(Cl)c3)cc2OC[C@@H](C)NC[C@H]1C,1410
2,Cc1ccc2nc3c(cc(C(=O)NCc4ccccc4)c(=N)n3CCCn3ccnc3)c(=O)n2c1,8840
3,C[C@H](CO)N1C[C@H](C)[C@H](CN(C)CC2CCCCC2)Oc2c(NC(=O)Nc3ccc4c(c3)OCO4)cccc2C1=O,2550
4,COc1ccc(CN(C)C[C@@H]2OCCCC[C@H](C)Oc3ccc(NS(=O)(=O)c4cccs4)cc3C(=O)N([C@H](C)CO)C[C@@H]2C)cc1,7890
5,C[C@@H]1CCCCO[C@@H](CN(C)S(C)(=O)=O)[C@@H](C)CN([C@@H](C)CO)C(=O)c2cc(NS(=O)(=O)c3ccc(Cl)cc3)ccc2O1,266
6,C[C@H]1CN([C@@H](C)CO)C(=O)c2cccc(NC(=O)Nc3ccc(F)cc3)c2O[C@@H]1CN(C)C(=O)Nc1ccc2c(c1)OCO2,5560
7,COc1ccc(C(=O)O)cc1S(=O)(=O)Nc1cc(C(F)(F)F)ccc1N1CCCCC1,246
8,COc1ccc(S(=O)(=O)Nc2ccc3c(c2)C(=O)N([C@@H](C)CO)C[C@H](C)[C@H](CN(C)C)OCCCC[C@@H](C)O3)cc1,419
9,C[C@@H]1CCCCO[C@H](CN(C)Cc2ccc(C(=O)O)cc2)[C@@H](C)CN([C@H](C)CO)C(=O)c2cc(NC(=O)Nc3ccc(C(F)(F)F)cc3)ccc2O1,< 160
10,C[C@H](CO)N1C[C@H](C)[C@@H](CN(C)CC2CC2)Oc2c(NC(=O)Nc3ccc(C(F)(F)F)cc3)cccc2C1=O,757
11,CNC[C@H]1Oc2c(NC(=O)Nc3ccc(C(F)(F)F)cc3)cccc2C(=O)N([C@@H](C)CO)C[C@@H]1C,646
12,CCCNC(=O)C[C@@H]1CC[C@@H]2[C@H](COC[C@H](O)CN2C(=O)Nc2cccc(Cl)c2)O1,6770
13,Cc1ccc(S(=O)(=O)c2cc3ccc(O)cc3oc2=O)cc1C,2990
14,C[C@@H]1CCCCO[C@@H](CN(C)CC2CCCCC2)[C@H](C)CN([C@@H](C)CO)C(=O)c2cc(NC(=O)Nc3ccccc3)ccc2O1,357
15,COc1ccc(NC(=O)Nc2ccc3c(c2)C(=O)N([C@H](C)CO)C[C@@H](C)[C@H](CN(C)Cc2ccc(C(=O)O)cc2)OCCCC[C@@H](C)O3)cc1,3300
16,C[C@@H]1CCCCO[C@@H](CN(C)C(=O)CCC(F)(F)F)[C@@H](C)CN([C@@H](C)CO)C(=O)c2cc(NS(=O)(=O)c3ccccc3)ccc2O1,1730
17,COc1ccc(CN(C)C[C@@H]2OCCCC[C@@H](C)Oc3ccc(NS(=O)(=O)c4c(C)noc4C)cc3C(=O)N([C@@H](C)CO)C[C@@H]2C)cc1,1880
18,CCCN(C)C[C@@H]1OCCCC[C@@H](C)Oc2ccc(NS(=O)(=O)c3ccc(C)cc3)cc2C(=O)N([C@@H](C)CO)C[C@@H]1C,133
19,CCCN(C)C[C@@H]1OCCCC[C@@H](C)Oc2ccc(NS(=O)(=O)c3ccccc3)cc2C(=O)N([C@H](C)CO)C[C@@H]1C,1040
20,CC(=O)Oc1cc2oc(=O)cc(C)c2cc1Cl,1020
21,Cc1c(O)ccc2c(CN3CCN(Cc4ccccc4)CC3)cc(=O)oc12,4100
22,Cc1ccccc1-c1ccc2c(c1)O[C@@H](CN(C)Cc1ccc(C(=O)O)cc1)[C@@H](C)CN([C@@H](C)CO)S2(=O)=O,1240

row,Compound,AC40 [nM]
1,C[C@@H]1CCCCO[C@H](CN(C)Cc2ccccc2)[C@H](C)CN([C@H](C)CO)C(=O)c2cc(NS(=O)(=O)c3ccccc3)ccc2O1,358
2,CCCN(C)C[C@@H]1OCCCC[C@@H](C)Oc2ccc(NS(=O)(=O)c3ccc(F)cc3)cc2C(=O)N([C@H](C)CO)C[C@@H]1C,3880
3,O=C(O)c1cccc(NC(=O)c2ccccc2NC(=O)c2cccc([N+](=O)[O-])c2)c1,967
4,COc1ccc(NC(=O)Nc2cccc3c2O[C@H](CN(C)Cc2ccc(C(=O)O)cc2)[C@H](C)CN([C@H](C)CO)C3=O)cc1,5250
5,Cc1noc(C)c1S(=O)(=O)Nc1ccc2c(c1)C(=O)N([C@H](C)CO)C[C@@H](C)[C@@H](CN(C)CC1CCCCC1)OCCCC[C@@H](C)O2,5460
6,O=C(C[C@H]1CC[C@H]2[C@@H](COC[C@@H](O)CN2C(=O)Nc2cccc(Cl)c2)O1)N1CCCCC1,211
7,Cc1ccc(-c2cc(C(=O)N3CCCC3)c3ccccc3n2)s1,6450
8,COc1ccc(CN(C)C[C@H]2OCCCC[C@@H](C)Oc3ccc(NS(=O)(=O)c4cccs4)cc3C(=O)N([C@@H](C)CO)C[C@H]2C)cc1,1110
9,COc1ccc(CNCc2c(O)c(Cl)cc3c(C)c(C)c(=O)oc23)c(OC)c1,2190
10,C[C@@H]1CCCCO[C@@H](CN(C)C(=O)CCC(F)(F)F)[C@@H](C)CN([C@@H](C)CO)C(=O)c2cc(NS(=O)(=O)c3ccc(Cl)cc3)ccc2O1,191
11,O=S(=O)(O)c1ccc(N2N=C(c3ccccc3)CC2c2ccccc2)cc1 (configuration not stated),4310
12,Cc1noc(C)c1S(=O)(=O)N(C)C[C@@H]1OCCCC[C@@H](C)Oc2ccc(NS(=O)(=O)c3cccs3)cc2C(=O)N([C@@H](C)CO)C[C@@H]1C,< 80
13,C[C@@H]1CCCCO[C@@H](CN(C)C)[C@@H](C)CN([C@@H](C)CO)C(=O)c2cc(NS(=O)(=O)c3ccc(F)cc3)ccc2O1,454
14,Cc1noc(C)c1S(=O)(=O)Nc1ccc2c(c1)C(=O)N([C@H](C)CO)C[C@H](C)[C@H](CN(C)Cc1ccc3c(c1)OCO3)OCCCC[C@@H](C)O2,2350
15,C[C@@H]1CCCCO[C@H](CN(C)C)[C@H](C)CN([C@H](C)CO)C(=O)c2cc(NS(=O)(=O)c3ccc(Cl)cc3)ccc2O1,548
16,C[C@@H]1CCCCO[C@@H](CN(C)C)[C@@H](C)CN([C@@H](C)CO)C(=O)c2cc(NS(=O)(=O)c3ccc(Cl)cc3)ccc2O1,636
17,C[C@@H]1CN([C@H](C)CO)C(=O)c2cc(NC(=O)Nc3ccc(F)cc3)ccc2O[C@H]1CN(C)Cc1ccc(C(=O)O)cc1,484
18,C[C@@H]1CCCCO[C@@H](CN(C)Cc2ccccc2)[C@H](C)CN([C@H](C)CO)C(=O)c2cc(NS(=O)(=O)c3cccs3)ccc2O1,528
19,O=c1cc(CN2CCN(Cc3ccccc3)CC2)c2ccc(O)cc2o1,1680
20,COc1cccc(CN(C)Cc2cc(=O)oc3cc(O)c(Cl)cc23)c1,2900
21,COc1ccc(CN(C)C[C@H]2OCCCC[C@@H](C)Oc3ccc(NS(=O)(=O)c4cccs4)cc3C(=O)N([C@@H](C)CO)C[C@@H]2C)cc1,4590
22,N#Cc1c(N)n(CCNC(=O)c2ccccc2)c2nc3ccccc3nc12,10000

# Same assay, conditions: ERAP1 enzyme, Leu-AMC fluorescence, 60 min; at 5.6 µM (top of the series)
row,Compound,activity increase (activation)
1,O=c1ccc2cc(O[C@@H]3O[C@@H](CO)[C@H](O)[C@@H](O)[C@@H]3O)c(O)cc2o1,-79.1% (inactive)
2,CN1CCN(Cc2c(O)ccc3cc(-c4ccccn4)c(=O)oc23)CC1,-103% (inactive)
3,Cc1cc2nc(-c3ccc[nH]c3=O)[nH]c2cc1C,-30.6% (inactive)

# Same assay, conditions: ERAP1 enzyme, Leu-AMC fluorescence, 60 min; at 10 µM (top of the series)
row,Compound,activity increase (activation)
1,CCN1[C@H](C(=O)Nc2nccs2)[C@@H](CO)[C@@H]2Cn3c(ccc(/C=C/c4ccccc4)c3=O)[C@@H]21,-13.4% (inactive)

# Same assay, conditions: ERAP1 enzyme, Leu-AMC fluorescence, 60 min; at 11 µM (top of the series)
row,Compound,activity increase (activation)
1,Cc1c(C)c2ccc(O)c(CN3CCN(C)CC3)c2oc1=O,-52.8% (inactive)
2,CC(C)(C)c1cc(N2CCOCC2)n2ncc(-c3ccccc3)c2n1,-42% (inactive)
3,O=C(O)c1ccccc1NS(=O)(=O)c1cccc(-n2sc3ccccc3c2=O)c1,-98.6% (inactive)
4,CCOC(=O)C[n+]1ccc2c([nH]c3ccccc32)c1C,-38.3% (inactive)
5,CCN(CCCl)c1cc(CN(C)C)cc(NC(=O)c2ccc(C(=O)Nc3cc(CN(C)C)cc(N(CC)CCCl)c3)cc2)c1,-76% (inactive)
6,CCc1cc(=O)oc2c(CNCc3c(F)cccc3Cl)c(O)ccc12,-60.7% (inactive)
7,Cc1c(-c2ccccc2)c(=O)oc2cc(O)ccc12,-87.3% (inactive)
8,CCCCc1cc(=O)oc2cc(O)ccc12,-62.4% (inactive)
9,COc1ccc(-c2cc3ccc(O)cc3oc2=O)cc1OC,-92.7% (inactive)
10,Cc1c(C)c2ccc(O)c(CN3CCCC3)c2oc1=O,-57% (inactive)
11,COCCCn1c(C(=O)N2CCOCC2)cc2c(=O)n3ccccc3nc21,-46.9% (inactive)
12,O=S(=O)(c1ccc(N2CCC(c3ccc(Cl)cc3)=N2)cc1)N(CCO)CCO,-40.9% (inactive)
13,CCc1c(C)c2cc(Cl)c(O)c(CN(C)C)c2oc1=O,-92.5% (inactive)
14,CCN(CC)Cc1c(O)c(Cl)cc2c(C)cc(=O)oc12,-83.4% (inactive)
15,Cc1cc(=O)oc2c(CN3CCCCC3)c(O)ccc12,-81.1% (inactive)
16,O=C(CSc1cn[nH]n1)Nc1cccc(C(=O)O)c1,-63.3% (inactive)
17,CCCNC(=O)N(C)C[C@@H]1Oc2ncc(-c3ccncc3)cc2C(=O)N([C@H](C)CO)C[C@@H]1C,-31.8% (inactive)
18,Cc1cc(=O)oc2c(CN3CCCC3)c(O)ccc12,-44% (inactive)
19,O=c1ccc2cc(O)c(O)cc2o1,-53.9% (inactive)
20,O=c1oc2c(CN3CCN(CCO)CC3)c(O)ccc2cc1-c1ccccn1,-80.1% (inactive)
21,C[C@@H]1CN([C@@H](C)CO)C(=O)c2cccc(NC(=O)Nc3ccc(C(F)(F)F)cc3)c2O[C@@H]1CN(C)C,30.6% (inactive)
22,O=c1oc2cc(O)ccc2cc1S(=O)(=O)c1ccccc1,349% (inactive)
23,COc1cc2ccc(=O)oc2cc1O,-97.7% (inactive)
24,O=c1ccc2cc(O[C@@H]3O[C@H](CO)[C@@H](O)[C@H](O)[C@H]3O)c(O)cc2o1,-98.9% (inactive)
25,Cc1cc(N(C)Cc2ccccc2)nc2cc(O)ccc12,-54% (inactive)
26,NC(=NCCc1c[nH]c2ccccc12)NS(=O)(=O)c1cc(F)ccc1F,-59.5% (inactive)
27,Cc1cc(=O)oc2c(CN3CCN(CCO)CC3)c(O)ccc12,-61.9% (inactive)
28,CN1[C@@H]2c3ccc(/C=C/c4ccccc4)c(=O)n3C[C@@H]2[C@@H](CO)[C@@H]1C(=O)NC1CCCC1,-14.6% (inactive)
29,Cc1cc(=O)oc2c(CN3CCN(C)CC3)c(O)c(Cl)cc12,-69.3% (inactive)

# — PubChem BioAssay AID743317 (Broad Institute, 2014)
